Reference: patent publication US12187758B2 (ROME Therapeutics, Inc., priority 2022, dated 2025)

Legend:
[1] = test system: interferon-stimulated gene (ISG) response; test: In vivo decitabine challenge model in C57BL/6 mice; conditions: kidneys, decitabine i.p. 5 mg/kg, compound 1, 10, 100 mg/kg p.o. once a day
Description: Exemplary compounds were tested for ability to alter the interferon-stimulated gene (ISG) response in C57BL/6 mice treated with decitabine. Assay procedures and results are described below. Twenty 9-11 week old C57BL/6 mice were acclimated to the lab for at least 5 days. Compound 23 was prepared in a 0.5% methylcellulose solution for p.o. administration. Decitabine (Sigma-Aldrich) was dissolved in sterile PBS (pH 7.4) and dosed within 30 minutes of preparation of the solution. Doses of both the compound and decitabine were administered once a day, every day from Day 0 to Day 4. […] The fold changes in interferon-stimulated gene (ISG) expression was calculated by first normalizing to GAPDH gene using the Delta CT method. The CT (gene of interest) —CT (reference gene) was calculated to generate a delta CT for all samples. […] The fold changes in interferon-stimulated gene (ISG, specifically IRF7 and MX1) expression was calculated by first normalizing to GAPDH gene using the Delta CT method. The CT (gene of interest)−CT (reference gene) was calculated to generate a delta CT for all samples. The fold change was then calculated by taking the […](Delta CT(control)−Delta CT (experimental). The control in this example was the PBS control animal group. Individual primers were used to amplify target genes.

[2] = test system: interferon-stimulated gene (ISG) response; test: B6/JGpt-Trex1em1Cd1194/Gpt mouse model (ISG score); type: in vivo; conditions: B6/JGpt-Trex1em1Cd1194/Gpt mice, 100 mg/kg p.o. daily for 5 days
Description: Exemplary compounds were tested for the ability to alter the interferon-stimulated gene (ISG) response in a B6/JGpt-Trex1em1Cd1194/Gpt mouse model. Assay procedures and results are described below.
Nine 8-10 week old B6/JGpt-Trex1em1Cd1194/Gpt mice were acclimated to the lab for at least 5 days. Compound 2 was prepared daily in a 20% PEG400 (pH 3.5) solution for p.o. administration. Compound 2 was administered for 5 days.
Compound 2 was administered daily from Day 1 to Day 5. All mice were euthanized 1 hour after the last dose administration on Day 5. Heart and skin were harvested and snap frozen in liquid nitrogen, and plasma (EDTA) was collected for bioanalysis. Total RNA was isolated and ISG score for each sample was determined as in Part IIIa of Example 108.
Fifteen 6-8 week old B6/JGpt-Trex1em1Cd1194/Gpt mice were acclimated to the lab for at least 5 days. Compound 67 was prepared daily in a 20% PEG400 (pH 3.5) solution for p.o. administration. […] was administered for 5 days.
Compound 67 was administered daily from Day 1 to Day 5. All mice were euthanized 1 hour after the last dose administration on Day 5. Heart and skin were harvested and snap frozen in liquid nitrogen, and plasma (EDTA) was collected for bioanalysis. Total RNA was isolated and ISG score for each sample was determined as in Part IIIa of Example 108.

[3] = test system: THP1-Dual KO-TREX1 xenograft tumors; test: Altering IFN production in THP1 TREX1 KO xenografts; type: in vivo, CB-17 SCID female mice; conditions: decitabine 5 mg/kg IP, test compound 10, 30, or 100 mg/kg PO once daily for 4 days; tumors 24 h post-last dose; FIG. 6
Description: Exemplary compounds 2, 25 and 40 were tested for their ability to alter IFN levels in THP1-Dual™ KO-TREX1 xenografts in mice. Assay procedures are described below.
CB-17 SCID female mice were inoculated subcutaneously with 10 million THP1-Dual™ KO-TREX1 cells in 200 μl PBS with Matrigel (1:1) and grouped when tumor volume reached 350-400 mm^3. Mice bearing THP1-Dual™ KO-TREX1 xenograft tumors were then separated into 5 groups. Three groups were administered: (1) decitabine (DAC) at 5 mg/kg IP, once daily, for 4 days, and (2) test compound at 10, 30, or 100 mg/kg, PO, once daily, for 4 days. One group was administered decitabine (DAC) at 5 mg/kg IP, once daily, for 4 days, and the test compound vehicle control. The final group was administered the vehicle control from both the test compound and the vehicle control from decitabine. Decitabine is formulated in sterile PBS, pH 7.4, and Compound 2, 25, and 40 were formulated in 20% PEG400 in PBS.
Tumors were harvested 24 h post-last dose administered on day 4, ground in PBS at 50 Hz for 5 min, and kept on ice for 30 min while being vortexed every 5 min. […] Equal amounts of proteins were added to 96-well black plates, and luciferase signal was measured using the QUANTI-Luc™ detection medium according to manufacturer's instructions. Luminescence was measured using the EnVision® 2105 Multimode Plate Reader. […]

| Compound | change in ISG response (IRF7 and MX1), FIGS. 2B and 2C [1] | ISG score in the heart and skin [2] | inhibition of DAC-induced IFN signal in THP1 tumors [3] |
| --- | --- | --- | --- |
| Nc1ccn([C@H]2C[C@H](O)[C@](CO)(CCl)O2)c(=O)n1 [Compound 2, 4-amino-1-((2R,4S,5R)-5-(chloromethyl)-4-hydroxy-5-(hydroxymethyl)tetrahydrofuran-2-yl)pyrimidin-2(1H)-one] | shows a change in the ISG response | lowers the ISG score | potent inhibition of DAC-induced IFN signal |
| Nc1nc(=O)n([C@@H]2O[C@@](CO)(CCl)[C@@H](O)[C@@H]2F)cc1F [Compound 67, 4-amino-1-[(2R,3S,4R,5R)-5-(chloromethyl)-3-fluoro-4-hydroxy-5-(hydroxymethyl)oxolan-2-yl]-5-fluoropyrimidin-2-one] |  | lowers the ISG score |  |
| Nc1ccn([C@@H]2O[C@@](CO)(CCl)[C@@H](O)[C@@H]2F)c(=O)n1 [Compound 40, 4-amino-1-((2R,3S,4R,5R)-5-(chloromethyl)-3-fluoro-4-hydroxy-5-(hydroxymethyl)tetrahydrofuran-2-yl)pyrimidin-2(1H)-one] |  |  | potent inhibition of DAC-induced IFN signal |
